Among the data in patent publication US20100016366A1, “Novel Compounds Active as Muscarinic Receptor Antagonists” (priority 2008, published 2010) are Ki values, retold here.

Assay [1] concerns the target T1, human muscarinic M3 receptor (Homo sapiens, UniProt P20309).
T1 construct: expressed in transfected cells; host or cells: CHO (CHO-K1) cells
Put plainly: hM3 competition binding assay (3H-NMS, CHO cell membranes). To be noted: CHO cell membranes expressing human M3; 3H-NMS at 5×KD, 24 hr at RT; IC50 corrected by Cheng-Prussoff. Put shortly: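 Membranes from CHO cells expressing human M3, 5 µg/well, incubated 24 h at RT with ³H-NMS at 5×KD in 20 mM HEPES pH 7.4; filtration and scintillation counting. Non-specific binding with 1 µM atropine. IC50 from specific-binding curves converted to Ki via Cheng-Prusoff.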

Assay [2] deals with T1, human muscarinic M3 receptor. Put plainly: Cell based potency assessment, hM3 β-lactamase assay (CHO cell β-lactamase). To be noted: CHO cells recombinantly expressing human M3, NFAT-β-lactamase reporter; inhibition of 80 nM carbamyl choline signal, 4 h; IC50 converted by Cheng-Prusoff. As to the method: Cell BASED POTENCY ASSESSMENT at the Human Recombinant M3 Muscarinic Receptor
M3 potency was determined in CHO-K1 cells transfected with the NFAT-Betalactamase gene. CHO (Chinese Hamster Ovary) cells recombinantly expressing the human muscarinic M3 receptor were transfected with the NFAT_β-Lac_Zeo plasmid. Cells were grown in DMEM with Glutamax-1, supplemented with 25 mM HEPES (Life Technologies 32430-027), containing 10% FCS (Foetal Calf Serum; Sigma F-7524), […] Sodium pyruvate (Sigma S-8636), NEAA (non-Essential Amino Acids; Invitrogen 11140-035) and 200 μg/ml Zeocin (Invitrogen R250-01).
hM3 β-Lactamase Assay Protocol
Cells were harvested for assay when they reached 80-90% confluency using enzyme free cell Dissociation Solution (Life technologies 13151-014) incubated with the cells for 5 min at 37° C. in an atmosphere containing 5% CO2. Detached cells were collected in warmed growth media and centrifuged at 2000 rpm for 10 min, washed in PBS (Phosphate Buffered Saline; Life Technologies 14190-094) and centrifuged again as just described. The cells were re-suspended at 2×10^5 cells/ml in growth medium (composition as described above). 20 μl of this cell suspension was added to each well of a 384 well black clear bottomed plate (Greiner Bio One 781091-PFI). The assay buffer used was PBS supplemented with 0.05% Pluronic F-127 (Sigma 9003-11-6) and 2.5% DMSO. Muscarinic M3 receptor signalling was stimulated using 80 nM carbamyl choline (Aldrich N240-9) incubated with the cells for 4 h at 37° C./5% CO2 and monitored at the end of the incubation period using a Tecan SpectraFluor+plate reader (λ−excitation 405 nm, emission 450 nm and 503 nm). M3 receptor antagonists under test were added to the assay at the beginning of the 4 h incubation period and compound activity measured as the concentration dependent inhibition of the carbamyl choline induced signal. Inhibition curves were plotted and IC50 values generated using a 4-parameter sigmoid fit and converted to Ki values using the Cheng-Prusoff correction and the KD value for carbamyl choline in the assay.

The structures appear in SMILES notation.

T1 sequence (P20309 whole entry): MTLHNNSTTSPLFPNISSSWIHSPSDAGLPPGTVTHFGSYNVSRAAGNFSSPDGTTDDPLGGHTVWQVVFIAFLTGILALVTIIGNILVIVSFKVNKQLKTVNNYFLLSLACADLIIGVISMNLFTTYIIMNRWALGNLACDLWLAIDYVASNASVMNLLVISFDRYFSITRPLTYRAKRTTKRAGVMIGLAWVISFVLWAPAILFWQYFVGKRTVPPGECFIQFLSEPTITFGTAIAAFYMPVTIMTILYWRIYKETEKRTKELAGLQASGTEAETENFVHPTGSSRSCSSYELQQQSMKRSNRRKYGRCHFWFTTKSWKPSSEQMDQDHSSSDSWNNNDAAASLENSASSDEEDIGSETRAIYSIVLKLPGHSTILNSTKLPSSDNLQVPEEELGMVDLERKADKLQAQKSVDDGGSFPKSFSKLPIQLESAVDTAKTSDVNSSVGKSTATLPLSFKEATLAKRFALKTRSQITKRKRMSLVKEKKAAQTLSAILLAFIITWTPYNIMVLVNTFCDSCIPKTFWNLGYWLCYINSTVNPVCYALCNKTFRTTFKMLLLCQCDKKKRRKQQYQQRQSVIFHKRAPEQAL

As for `CN(CCCCCCCCCN1CCC(OC(=O)Nc2ccccc2-c2ccccc2)CC1)C(=O)Cc1ccc(O)c(F)c1` [Example 18, Biphenyl-2-yl-carbamic acid 1-(9-{[2-(3-fluoro-4-hydroxy-phenyl)-acetyl]-methyl-amino}-nonyl)-piperidin-4-yl ester], the figures for the Ki in assay [1] and in assay [2] were 2.29 nM and 0.353 nM, respectively.
The like results for `O=C(Nc1ccccc1-c1ccccc1)OC1CCN(CCCCCCCCCNCc2ccc(Cl)c(O)c2Cl)CC1` [Example 37, Biphenyl-2-yl-carbamic acid 1-[9-(2,4-dichloro-3-hydroxy-benzylamino)-nonyl]-piperidin-4-yl ester] were, in that order, 0.342 nM and 1.12 nM.
The like results for `O=C(Nc1ccccc1-c1ccccc1)OC1CCN(CCCCCCCCCNC(=O)c2cccc(F)c2O)CC1` [Example 8, Biphenyl-2-yl-carbamic acid 1-[9-(3-fluoro-2-hydroxy-benzoylamino)-nonyl]-piperidin-4-yl ester] were, in that order, 4.81 nM and 2.68 nM.
The matching figures for `O=C(Nc1ccccc1-c1ccccc1)OC1CCN(CCCCCCCCCNCc2cccc(O)c2Cl)CC1` [Example 5, Biphenyl-2-yl-carbamic acid 1-[9-(2-chloro-3-hydroxy-benzylamino)-nonyl]-piperidin-4-yl ester]: 0.521 nM and 0.894 nM.
Consider `O=C(Nc1ccccc1-c1ccccc1)OC1CCN(CCCCCCCCCNC(=O)c2ccc(Cl)c(O)c2)CC1` [Example 19, Biphenyl-2-yl-carbamic acid 1-[9-(4-chloro-3-hydroxy-benzoylamino)-nonyl]-piperidin-4-yl ester], for which the values for the Ki in assay [1] and in assay [2] were 1.45 nM and 1.32 nM, respectively.
The matching figures for `O=C(Nc1ccccc1-c1ccccc1)OC1CCN(CCCCCCCCCNCc2ccc(O)c(Cl)c2)CC1` [Example 34, Biphenyl-2-yl-carbamic acid 1-[9-(3-chloro-4-hydroxy-benzylamino)-nonyl]-piperidin-4-yl ester]: 0.787 nM and 0.96 nM.
The matching figures for `O=C(Nc1ccccc1-c1ccccc1)OC1CCN(CCCCCCCCCNCc2cc(F)c(O)c(F)c2)CC1` [Example 27, Biphenyl-2-yl-carbamic acid 1-[9-(3,5-difluoro-4-hydroxy-benzylamino)-nonyl]-piperidin-4-yl ester]: 1.1 nM and 0.208 nM.
With `CN(CCCCCCCCCN1CCC(OC(=O)Nc2ccccc2-c2ccccc2)CC1)C(=O)Cc1ccc(O)c(Cl)c1` [Example 15, Biphenyl-2-yl-carbamic acid 1-(9-{[2-(3-chloro-4-hydroxy-phenyl)-acetyl]-methyl-amino}-nonyl)-piperidin-4-yl ester], the Ki – broadly, the dissociation constant of the complex between target and ligand, obtained from inhibition or displacement – in assay [1] came to 2.37 nM; in assay [2], 0.396 nM.
The like results for `CN(CCCCCCCCCN1CCC(OC(=O)Nc2ccccc2-c2ccccc2)CC1)C(=O)c1ccc(O)c(Cl)c1` [Example 17, Biphenyl-2-yl-carbamic acid 1-{9-[(3-chloro-4-hydroxy-benzoyl)-methyl-amino]-nonyl}-piperidin-4-yl ester] were, in that order, 2.15 nM and 0.25 nM.
The like results for `O=C(Nc1ccccc1-c1ccccc1)OC1CCN(CCCCCCCCCNC(=O)c2ccc(O)c(F)c2)CC1` [Example 6, Biphenyl-2-yl-carbamic acid 1-[9-(3-fluoro-4-hydroxy-benzoylamino)-nonyl]-piperidin-4-yl ester] were, in that order, 0.778 nM and 0.222 nM.
The like results for `O=C(Nc1ccccc1-c1ccccc1)OC1CCN(CCCCCCCCCNCc2cc(Cl)cc(Cl)c2O)CC1` [Example 31, Biphenyl-2-yl-carbamic acid 1-[9-(2-hydroxy-3,5-dichloro-benzylamino)-nonyl]-piperidin-4-yl ester] were, in that order, 2.47 nM and 0.728 nM.
Take `O=C(Nc1ccccc1-c1ccccc1)OC1CCN(CCCCCCCCCNCc2ccc(F)c(O)c2)CC1` [Example 36, Biphenyl-2-yl-carbamic acid 1-[9-(3-hydroxy-4-fluoro-benzylamino)-nonyl]-piperidin-4-yl ester]: the figures for the Ki in assay [1] and in assay [2] were 0.235 nM and 2.24 nM, respectively.
Consider `O=C(Nc1ccccc1-c1ccccc1)OC1CCN(CCCCCCCCCNCc2cc(F)ccc2O)CC1` [Example 35, Biphenyl-2-yl-carbamic acid 1-[9-(2-hydroxy-5-fluoro-benzylamino)-nonyl]-piperidin-4-yl ester], for which the Ki in assay [1] worked out at 1.38 nM; in assay [2] it was 1.64 nM.
The matching figures for `O=C(Nc1ccccc1-c1ccccc1)OC1CCN(CCCCCCCCCNCc2cc(Cl)c(Cl)cc2O)CC1` [Example 28, Biphenyl-2-yl-carbamic acid 1-[9-(2-hydroxy-4,5-dichloro-benzylamino)-nonyl]-piperidin-4-yl ester]: 3.83 nM and 3.59 nM.
The matching figures for `O=C(Nc1ccccc1-c1ccccc1)OC1CCN(CCCCCCCCCNC(=O)c2ccc(O)c(Cl)c2)CC1` [Example 1, Biphenyl-2-yl-carbamic acid 1-[9-(3-chloro-4-hydroxy-benzoylamino)-nonyl]-piperidin-4-yl ester]: 1.6 nM and 0.0697 nM.
Consider `O=C(Nc1ccccc1-c1ccccc1)OC1CCN(CCCCCCCCCNCc2cc(F)c(Cl)cc2O)CC1` [Example 33, Biphenyl-2-yl-carbamic acid 1-[9-(2-hydroxy-4-chloro-5-fluoro-benzylamino)-nonyl]-piperidin-4-yl ester], for which the Ki in assay [1] came out at 6.04 nM; in assay [2], 2.72 nM.
Consider `O=C(Nc1ccccc1-c1ccccc1)OC1CCN(CCCCCCCCCNC(=O)c2ccc(O)cc2F)CC1` [Example 20, Biphenyl-2-yl-carbamic acid 1-[9-(2-fluoro-4-hydroxy-benzoylamino)-nonyl]-piperidin-4-yl ester], for which the Ki was found to be 1.95 nM in assay [1] and 0.918 nM in assay [2].
